pIC50: −log10 of the molar value.
Target: T1, Tyrosine-protein kinase ITK/TSK (Homo sapiens, UniProt Q08881)
T1 sequence (Q08881 whole entry): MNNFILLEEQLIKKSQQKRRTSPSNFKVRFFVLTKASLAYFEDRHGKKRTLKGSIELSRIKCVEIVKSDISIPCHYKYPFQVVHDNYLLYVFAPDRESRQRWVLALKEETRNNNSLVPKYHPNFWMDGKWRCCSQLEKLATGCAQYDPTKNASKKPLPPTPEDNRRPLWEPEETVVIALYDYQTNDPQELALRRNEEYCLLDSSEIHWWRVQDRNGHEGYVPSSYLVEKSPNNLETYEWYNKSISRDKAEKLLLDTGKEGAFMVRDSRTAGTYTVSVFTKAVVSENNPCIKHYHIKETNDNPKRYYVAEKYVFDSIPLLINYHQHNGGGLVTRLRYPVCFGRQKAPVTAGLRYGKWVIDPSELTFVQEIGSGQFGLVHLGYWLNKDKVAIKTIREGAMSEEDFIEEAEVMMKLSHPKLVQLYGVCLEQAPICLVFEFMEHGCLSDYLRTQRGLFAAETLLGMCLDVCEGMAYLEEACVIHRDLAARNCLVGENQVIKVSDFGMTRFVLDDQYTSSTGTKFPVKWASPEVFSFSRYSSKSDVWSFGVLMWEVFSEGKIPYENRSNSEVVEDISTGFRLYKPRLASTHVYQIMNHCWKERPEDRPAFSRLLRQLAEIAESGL
Assay: ITK Target Modulation PLC-gamma Assay: Compounds were serially diluted into DMSO, and then into media to concentrations 10× that of the final assay concentration. Compounds were then added to the cells with the final assay DMSO concentration being 0.1%. Cells were incubated for 1 hour at 37° C. Following compound incubation, αCD3 Dynabeads were added at 1 bead/cell to each assay well and incubated at 37° C. for 7 minutes. Unstimulated control wells received media only. The plate was then placed on a 96-well magnetic plate for an additional 60 seconds (total assay stimulation time equals 8 minutes). The plate was then dumped and gently patted dry on a paper towel. 50 ul of complete Meso Scale Discovery (MSD) Lysis buffer was then added to each well. Samples were assayed for phospho-PLCγ1 using Meso Scale Discovery technology.

Question: With `C=CC(=O)Nc1cccc(-c2cnc3[nH]cc(-c4ccnc5ccccc45)c3c2)c1` as the compound, how does the pIC50 read?
Answer: 5.30 to 6.00

Question: `C=CC(=O)Nc1cccc(-c2cnc3[nH]cc(-c4cccc5[nH]ccc45)c3c2)c1` was tested. Which pIC50 did it give?
Answer: 5.30 to 6.00

Question: `C=CC(=O)Nc1cccc(-c2cnc3[nH]cc(-c4cccc(OC)c4)c3c2)c1` was tested. Which pIC50 did it give?
Answer: 5.30 to 6.00

Question: `C=CC(=O)Nc1cc(-c2cnc3[nH]cc(-c4ccc(OC)nc4)c3c2)cc(C(F)(F)F)c1` was tested. Which pIC50 did it give?
Answer: 5.30 to 6.00

Question: `C=CC(=O)Nc1cccc(-c2cnc3[nH]cc(-c4ccnc(F)c4)c3c2)c1` was tested. Which pIC50 did it give?
Answer: > 6.00

Question: How did the pIC50 turn out when `C=CC(=O)Nc1cccc(-c2cnc3[nH]cc(-c4cc(C)nc(OC)c4)c3c2)c1` was run?
Answer: 5.30 to 6.00

Question: With `C=CC(=O)Nc1cc(-c2cnc3[nH]cc(-c4ccncc4)c3c2)cc(C(F)(F)F)c1` as the compound, how does the pIC50 read?
Answer: > 6.00

Question: How did the pIC50 turn out when `C=CC(=O)Nc1cccc(-c2cnc3[nH]cc(-c4ccc(=O)n(CC5CC5)c4)c3c2)c1` was run?
Answer: > 6.00

Question: With `C=CC(=O)Nc1cccc(-c2cnc3[nH]cc(-c4cc(NC)ncn4)c3c2)c1` as the compound, how does the pIC50 read?
Answer: 5.30 to 6.00

Question: How did the pIC50 turn out when `C=CC(=O)Nc1cccc(-c2cnc3[nH]cc(-c4ccccc4C)c3c2)c1` was run?
Answer: 5.30 to 6.00

Question: How did the pIC50 turn out when `C=CC(=O)Nc1cccc(-c2cnc3[nH]cc(-c4cccc(C#N)c4)c3c2)c1` was run?
Answer: 5.30 to 6.00

Question: `C=CC(=O)Nc1cccc(-c2cnc3[nH]cc(-c4cccc5ncccc45)c3c2)c1` was tested. Which pIC50 did it give?
Answer: 5.30 to 6.00

Question: How did the pIC50 turn out when `C=CC(=O)Nc1cccc(-c2cnc3[nH]cc(-c4ccncn4)c3c2)c1` was run?
Answer: > 6.00

Question: How did the pIC50 turn out when `C=CC(=O)Nc1cccc(-c2cnc3[nH]cc(-c4cn(CC5CC5)c(=O)c5[nH]ccc45)c3c2)c1` was run?
Answer: 5.30 to 6.00

Question: `C=CC(=O)Nc1cccc(-c2cnc3[nH]cc(-c4cccc5occc45)c3c2)c1` was tested. Which pIC50 did it give?
Answer: < 5.30

Question: How did the pIC50 turn out when `C=CC(=O)Nc1cc(-c2cnc3[nH]cc(-c4ccnc(OC)c4)c3c2)cc(C(O)(CC)CC)c1` was run?
Answer: 5.30 to 6.00

Question: How did the pIC50 turn out when `C=CC(=O)Nc1cccc(-c2cnc3[nH]cc(-c4ccnc(NC)c4)c3c2)c1` was run?
Answer: > 6.00

Question: How did the pIC50 turn out when `C=CC(=O)Nc1cccc(-c2cnc3[nH]cc(-c4ccnc(NC)n4)c3c2)c1` was run?
Answer: > 6.00

Question: How did the pIC50 turn out when `C=CC(=O)Nc1cc(-c2cnc3[nH]cc(-c4ccnc(OC)c4)c3c2)cc(-c2cnn(C)c2)c1` was run?
Answer: > 6.00

Question: `Cc1cc(-c2c[nH]c3ncc(-c4cccc(/C=C(\C#N)C(N)=O)c4)cc23)ccn1` was tested. Which pIC50 did it give?
Answer: 5.30 to 6.00

Question: How did the pIC50 turn out when `C=CC(=O)Nc1cc(OC)cc(-c2cnc3[nH]cc(-c4ccncc4)c3c2)c1` was run?
Answer: > 6.00

Target: T1, Tyrosine-protein kinase ITK/TSK
Assay: ITK Inhibitor Binding Kinetics: This assay is based on the binding of a proprietary, Alexa Fluor 647-labeled, ATP-competitive kinase inhibitor (kinase tracer-236) to the ITK expression construct in the presence of a Europium-conjugated antibody, resulting in a FRET (fluorescence resonance energy transfer) signal. Displacement of the kinase tracer by compound results in a lower emission ratio upon excitation of the Europium chelate. Candidate compounds are designed as potential irreversible inhibitors of ITK, capable of ligating to an active site cysteine residue resulting in time dependent covalent binding. The time dependent nature of irreversible inhibition is investigated by performing the binding assay with and without a pre-incubation of compound and ITK.

Question: `COC/C=C/C(=O)Nc1cccc(-c2cnc3[nH]cc(-c4ccnc(OC)c4)c3c2)c1` was tested. Which pIC50 did it give?
Answer: > 6.00

Question: How did the pIC50 turn out when `C=CC(=O)Nc1cccc(-c2cnc3[nH]cc(-c4cncc(Cl)c4)c3c2)c1` was run?
Answer: > 6.00

Question: How did the pIC50 turn out when `C=CC(=O)NC1CN(c2cnc3[nH]cc(-c4ccnc(C#N)c4)c3c2)C1` was run?
Answer: > 6.00

Question: How did the pIC50 turn out when `C=CC(=O)Nc1cccc(-c2cnc3[nH]cc(-c4cccnc4)c3c2)c1` was run?
Answer: > 6.00

Question: With `N#C/C(=C\c1cccc(-c2cnc3[nH]cc(-c4ccncn4)c3c2)c1)C(N)=O` as the compound, how does the pIC50 read?
Answer: > 6.00

Question: With `C=CC(=O)Nc1cccc(-c2cnc3[nH]cc(-c4cncc5[nH]ccc45)c3c2)c1` as the compound, how does the pIC50 read?
Answer: > 6.00

Question: With `COc1cc(/C=C(\C#N)C(N)=O)cc(-c2cnc3[nH]cc(-c4ccnc(OC)c4)c3c2)c1` as the compound, how does the pIC50 read?
Answer: > 6.00

Question: How did the pIC50 turn out when `C=CC(=O)Nc1cncc(-c2cnc3[nH]cc(-c4cn(C)c(=O)c5[nH]ccc45)c3c2)c1` was run?
Answer: > 6.00

Question: With `C=CC(=O)Nc1cccc(-c2cnc3[nH]cc(-c4ccnc(C)c4)c3c2)c1` as the compound, how does the pIC50 read?
Answer: > 6.00

Question: How did the pIC50 turn out when `C=CC(=O)Nc1cccc(-c2cnc3[nH]cc(-c4ccc(=O)n(CC(C)(C)O)c4)c3c2)c1` was run?
Answer: > 6.00

Question: How did the pIC50 turn out when `C=CC(=O)Nc1cccc(-c2cnc3[nH]cc(-c4ccc(OCC5CC5)nc4)c3c2)c1` was run?
Answer: > 6.00

Question: How did the pIC50 turn out when `C=CC(=O)Nc1cccc(-c2cnc3[nH]cc(-c4cc(C)ncn4)c3c2)c1` was run?
Answer: > 6.00

Question: How did the pIC50 turn out when `N#C/C(=C\c1cccc(-c2cnc3[nH]cc(-c4ccc(F)nc4)c3c2)c1)C(N)=O` was run?
Answer: > 6.00

Question: How did the pIC50 turn out when `C=CC(=O)Nc1cccc(-c2cnc3[nH]cc(-c4cccc5cnccc45)c3c2)c1` was run?
Answer: > 6.00

Question: How did the pIC50 turn out when `C=CC(=O)Nc1cc(-c2cnc3[nH]cc(-c4ccnc(F)c4)c3c2)cc(C(F)(F)F)c1` was run?
Answer: > 6.00

Question: With `C=CC(=O)Nc1cc(C#N)cc(-c2cnc3[nH]cc(-c4ccncc4)c3c2)c1` as the compound, how does the pIC50 read?
Answer: > 6.00

Question: How did the pIC50 turn out when `C=CC(=O)Nc1cccc(-c2cnc3[nH]cc(-c4cc(C)cc(OC)n4)c3c2)c1` was run?
Answer: > 6.00

Question: How did the pIC50 turn out when `C=CC(=O)Nc1cccc(-c2cnc3[nH]cc(-c4ccc(OC)nc4)c3c2)c1` was run?
Answer: > 6.00

Question: With `C=C(C)C(=O)Nc1cc(-c2cnc3[nH]cc(-c4ccnc(OC)c4)c3c2)cc(-c2cnn(C)c2)n1` as the compound, how does the pIC50 read?
Answer: > 6.00

Question: With `C=CC(=O)Nc1cccc(-c2cnc3[nH]cc(-c4cc(OC)nc(C(F)(F)F)c4)c3c2)c1` as the compound, how does the pIC50 read?
Answer: < 6.00

Question: With `C=CC(=O)Nc1cc(-c2cnc3[nH]cc(-c4ccc(F)nc4)c3c2)cc(C(F)(F)F)c1` as the compound, how does the pIC50 read?
Answer: > 6.00

Question: `C=CC(=O)Nc1cccc(-c2cnc3[nH]cc(-c4ccc(=O)n(C)c4)c3c2)c1` was tested. Which pIC50 did it give?
Answer: > 6.00

Question: `C=CC(=O)Nc1cc(-c2cnc3[nH]cc(-c4cccnc4)c3c2)cc(C(F)(F)F)c1` was tested. Which pIC50 did it give?
Answer: > 6.00

Question: With `C=CC(=O)Nc1cccc(-c2cnc3[nH]cc(-c4ccnc5[nH]ccc45)c3c2)c1` as the compound, how does the pIC50 read?
Answer: > 6.00

Question: How did the pIC50 turn out when `C=CC(=O)Nc1cccc(-c2cnc3[nH]cc(-c4cc(OC)ncc4C)c3c2)c1` was run?
Answer: > 6.00

Question: `C=CC(=O)Nc1cccc(-c2cnc3[nH]cc(-c4ccc(F)nc4)c3c2)c1` was tested. Which pIC50 did it give?
Answer: > 6.00

Question: How did the pIC50 turn out when `C=CC(=O)Nc1cccc(-c2cnc3[nH]cc(-c4cccc5ccccc45)c3c2)c1` was run?
Answer: > 6.00

Question: How did the pIC50 turn out when `C=CC(=O)Nc1cccc(-c2cnc3[nH]cc(-c4ccc(NC)nc4)c3c2)c1` was run?
Answer: > 6.00
